Measurements reported in patent US8247211B2, “Glycopeptide antibiotics” (American Cyanamid Company, priority 2001, dated 2012).
Values after ≈ are worked out from the molar mass of the structure shown.

Experiments:
Test in all cases: In vitro antibacterial evaluation: minimum inhibitory concentration (MIC), broth dilution method
Assay type in all cases: cell-based
Enterococcus sp. = details: broth dilution, 5×10^5 CFU/mL, 18 hours at 35° C.
Procedure, shortened: (§1)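 NCCLS M7-A2 broth dilution; Muller-Hinton II […]; 5×10^5 CFU/mL; 64-0.06 μg/mL. MIC = lowest concentration with no growth.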

Staphylococcus sp. = details: for MIC Staphylococcus aureus (ATCC 29213): strain ATCC 29213; for MIC Staphylococcus aureus (GC 1131): strain GC 1131; for MIC Staphylococcus aureus (GC 3051): strain GC 3051; for MIC Staphylococcus aureus (GC 3053): strain GC 3053; for MIC Staphylococcus aureus (GC 4541): strain GC 4541; for MIC Staphylococcus aureus (GC 4542): strain GC 4542; for MIC Staphylococcus aureus (GC 4544): strain GC 4544; for MIC Staphylococcus aureus (GC 4545): strain GC 4545
Procedure, shortened: as §1

Streptococcus sp. = details: broth dilution, 5×10^5 CFU/mL, 18 hours at 35° C.
Procedure, shortened: as §1

Escherichia coli = details: 5×10^5 CFU/mL, 18 hours at 35° C.
Procedure, shortened: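 Following NCCLS approved standard M7-A2, compounds are serially diluted from 64 to 0.06 μg/mL in Muller-Hinton II […] and inoculated at 5×10^5 CFU/mL; the MIC is the minimum concentration at which growth is inhibited.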

[1] = broth dilution, 5×10^5 CFU/mL, 18 hours at 35° C.
[2] = broth dilution, 18 hours at 35° C.
[3] = strain GC 4543, broth dilution, 18 hours at 35° C.
[4] = strain GC 4547, broth dilution, 18 hours at 35° C.
[5] = strain GC 4551, broth dilution, 18 hours at 35° C.

## CC(c1ccccc1)C1NC(=O)CNC(=O)C(CO)NC(=O)C(C(O)C2CNC(=N)N2C2OC(CO)C(O)C(O)C2O)NC(=O)C(C(O)C2CNC(=N)N2)NC(=O)C(Cc2ccc(OC3OC(CO)C(OC4OC5COC(c6cccs6)OC5C(O)C4O)C(O)C3O)cc2)NC1=O (stereo not drawn) [Example 132, Cyclo[glycyl-β-methylphenylalanyl-O-[4-O-[4,6-O-(2-thienylmethylene)hexopyranosyl]-hexopyranosyl]tyrosyl-3-(2-iminoimidazolidin-4-yl)seryl-3-(3-hexopyranosyl-2-iminoimidazolidin-4-yl)serylseryl]]
Enterococcus sp.
  MIC Enterococccus avium (GC 4558): 16 µg/mL (≈ 11.5 µM)
  MIC Enterococccus faecalis (ATCC 29212): 8 µg/mL (≈ 5.76 µM)
  MIC Enterococccus faecalis (GC 2691): 8 µg/mL (≈ 5.76 µM)
  MIC Enterococccus faecalis (GC 3059): 16 µg/mL (≈ 11.5 µM)
  MIC Enterococccus faecalis (GC 4552): 8 µg/mL (≈ 5.76 µM)
  MIC Enterococccus faecalis (GC 4553): 16 µg/mL (≈ 11.5 µM)
  MIC Enterococccus faecalis (GC 4554): 8 µg/mL (≈ 5.76 µM)
  MIC Enterococccus faecalis (GC 6189): 8 µg/mL (≈ 5.76 µM)
  MIC Enterococccus faecium (GC 2243): 8 µg/mL (≈ 5.76 µM)
  MIC Enterococccus faecium (GC 4556): 8 µg/mL (≈ 5.76 µM)
  MIC Enterococccus faecium (GC 4557): 4 µg/mL (≈ 2.88 µM)
  MIC Enterococcus faecalis (GC 2242): 8 µg/mL (≈ 5.76 µM)
Staphylococcus sp.; [1]
  MIC Coagulase Negative Staphylococcus (GC 4547): 2 µg/mL (≈ 1.44 µM)
  MIC Coagulase Negative Staphylococcus (GC 4548): 1 µg/mL (≈ 0.72 µM)
  MIC Coagulase Negative Staphylococcus (GC 4549): 1 µg/mL (≈ 0.72 µM)
  MIC Coagulase Negative Staphylococcus (GC 4551): 2 µg/mL (≈ 1.44 µM)
  MIC Coagulase Negative Staphylococcus (GC 6257): 1 µg/mL (≈ 0.72 µM)
  MIC Staphylococcus aureus-SMITH (GC 4543): 2 µg/mL (≈ 1.44 µM)
  MIC Staphylococcus haemolyticus (GC 4546): 1 µg/mL (≈ 0.72 µM)
Staphylococcus sp.
  MIC Staphylococcus aureus (ATCC 29213): 4 µg/mL (≈ 2.88 µM)
  MIC Staphylococcus aureus (GC 1131): 2 µg/mL (≈ 1.44 µM)
  MIC Staphylococcus aureus (GC 3051): 2 µg/mL (≈ 1.44 µM)
  MIC Staphylococcus aureus (GC 3053): 4 µg/mL (≈ 2.88 µM)
  MIC Staphylococcus aureus (GC 4541): 2 µg/mL (≈ 1.44 µM)
  MIC Staphylococcus aureus (GC 4542): 2 µg/mL (≈ 1.44 µM)
  MIC Staphylococcus aureus (GC 4544): 4 µg/mL (≈ 2.88 µM)
  MIC Staphylococcus aureus (GC 4545): 2 µg/mL (≈ 1.44 µM)
Staphylococcus sp.; [2]
  MIC Staphylococcus aureus (ATCC 29213): 4 µg/mL (≈ 2.88 µM)
  MIC Staphylococcus aureus (GC 1131): 2 µg/mL (≈ 1.44 µM)
  MIC Staphylococcus aureus (GC 3051): 2 µg/mL (≈ 1.44 µM)
  MIC Staphylococcus aureus (GC 3053): 4 µg/mL (≈ 2.88 µM)
  MIC Staphylococcus aureus (GC 4541): 2 µg/mL (≈ 1.44 µM)
  MIC Staphylococcus aureus (GC 4542): 2 µg/mL (≈ 1.44 µM)
  MIC Staphylococcus aureus (GC 4544): 4 µg/mL (≈ 2.88 µM)
  MIC Staphylococcus aureus (GC 4545): 2 µg/mL (≈ 1.44 µM)
Staphylococcus sp.; [3]
  MIC Staphylococcus aureus-SMITH (GC 4543): 2 µg/mL (≈ 1.44 µM)
Staphylococcus sp.; strain GC 4546, broth dilution, 18 hours at 35° C.
  MIC Staphylococcus haemolyticus (GC 4546): 1 µg/mL (≈ 0.72 µM)
Staphylococcus sp.; [4]
  MIC Coagulase Negative Staphylococcus (GC 4547): 2 µg/mL (≈ 1.44 µM)
Staphylococcus sp.; strain GC 4548, broth dilution, 18 hours at 35° C.
  MIC Coagulase Negative Staphylococcus (GC 4548): 1 µg/mL (≈ 0.72 µM)
Staphylococcus sp.; strain GC 4549, broth dilution, 18 hours at 35° C.
  MIC Coagulase Negative Staphylococcus (GC 4549): 1 µg/mL (≈ 0.72 µM)
Staphylococcus sp.; [5]
  MIC Coagulase Negative Staphylococcus (GC 4551): 2 µg/mL (≈ 1.44 µM)
Staphylococcus sp.; strain GC 6257, broth dilution, 18 hours at 35° C.
  MIC Coagulase Negative Staphylococcus (GC 6257): 1 µg/mL (≈ 0.72 µM)
Streptococcus sp.
  MIC Streptococcus agalactiae (GC 4564): 0.5 µg/mL (≈ 0.36 µM)
  MIC Streptococcus pneumoniae (GC 1894): 0.12 µg/mL (≈ 0.0864 µM)
  MIC Streptococcus pneumoniae (GC 4565): 0.25 µg/mL (≈ 0.18 µM)
  MIC Streptococcus pneumonine (ATCC 6301): 0.25 µg/mL (≈ 0.18 µM)
  MIC Streptococcus pyogenes (GC 4563): 0.5 µg/mL (≈ 0.36 µM)
Escherichia coli
  MIC Escherichia coli (ATCC 25922): >64 µg/mL
  MIC Escherichia coli (GC 4559): 32 µg/mL (≈ 23 µM)
  MIC Escherichia coli (GC 4560): 1 µg/mL (≈ 0.72 µM)

## CC(c1ccccc1)C1NC(=O)CNC(=O)C(CO)NC(=O)C(C(O)C2CNC(=N)N2C2OC(CO)C(O)C(O)C2O)NC(=O)C(C(O)C2CNC(=N)N2)NC(=O)C(Cc2ccc(OC3OC(CO)C(OC4OC5COC(Cc6ccc(Br)cc6)OC5C(O)C4O)C(O)C3O)cc2)NC1=O (stereo not drawn) [Example 118, Cyclo[glycyl-β-methylphenylalanyl-O-[4-O-[4,6-O-(4-bromophenethylidene)hexopyranosyl]-hexopyranosyl]tyrosyl-3-(2-iminoimidazolidin-4-yl)seryl-3-(3-hexopyranosyl-2-iminoimidazolidin-4-yl)serylseryl]]
Enterococcus sp.
  MIC Enterococccus avium (GC 4558): 1 to 2 µg/mL
  MIC Enterococccus faecalis (ATCC 29212): 1 to 2 µg/mL
  MIC Enterococccus faecalis (GC 2691): 1 to 2 µg/mL
  MIC Enterococccus faecalis (GC 3059): 1 to 2 µg/mL
  MIC Enterococccus faecalis (GC 4552): 1 to 2 µg/mL
  MIC Enterococccus faecalis (GC 4553): 1 to 2 µg/mL
  MIC Enterococccus faecalis (GC 4554): 1 to 2 µg/mL
  MIC Enterococccus faecalis (GC 6189): 1 to 2 µg/mL
  MIC Enterococccus faecium (GC 2243): 1 µg/mL (≈ 0.677 µM)
  MIC Enterococccus faecium (GC 4556): <0.5 to 1 µg/mL
  MIC Enterococccus faecium (GC 4557): <0.5 to 2 µg/mL
  MIC Enterococcus faecalis (GC 2242): <0.5 to 2 µg/mL
Staphylococcus sp.
  MIC Staphylococcus aureus (ATCC 29213): <0.5 to 1 µg/mL
  MIC Staphylococcus aureus (GC 1131): <0.5 to 1 µg/mL
  MIC Staphylococcus aureus (GC 3051): <0.5 to 1 µg/mL
  MIC Staphylococcus aureus (GC 3053): 1 µg/mL (≈ 0.677 µM)
  MIC Staphylococcus aureus (GC 4541): <0.5 to 1 µg/mL
  MIC Staphylococcus aureus (GC 4542): <0.5 to 1 µg/mL
  MIC Staphylococcus aureus (GC 4544): <0.5 to 1 µg/mL
  MIC Staphylococcus aureus (GC 4545): <0.5 to 1 µg/mL
Staphylococcus sp.; [2]
  MIC Staphylococcus aureus (ATCC 29213): <0.5 to 1 µg/mL
  MIC Staphylococcus aureus (GC 1131): <0.5 to 1 µg/mL
  MIC Staphylococcus aureus (GC 3051): <0.5 to 1 µg/mL
  MIC Staphylococcus aureus (GC 3053): 1 µg/mL (≈ 0.677 µM)
  MIC Staphylococcus aureus (GC 4541): <0.5 to 1 µg/mL
  MIC Staphylococcus aureus (GC 4542): <0.5 to 1 µg/mL
  MIC Staphylococcus aureus (GC 4544): <0.5 to 1 µg/mL
  MIC Staphylococcus aureus (GC 4545): <0.5 to 1 µg/mL
Staphylococcus sp.; strain GC 4543, 18 hours at 35° C.
  MIC Staphylococcus aureus-SMITH (GC 4543): <0.5 to 1 µg/mL
Staphylococcus sp.; [3]
  MIC Staphylococcus aureus-SMITH (GC 4543): <0.5 to 1 µg/mL
Staphylococcus sp.; strain GC 4547
  MIC Coagulase Negative Staphylococcus (GC 4547): <0.5 to 1 µg/mL
Staphylococcus sp.; [4]
  MIC Coagulase Negative Staphylococcus (GC 4547): <0.5 to 1 µg/mL
Staphylococcus sp.; strain GC 4551
  MIC Coagulase Negative Staphylococcus (GC 4551): <0.5 to 1 µg/mL
Staphylococcus sp.; [5]
  MIC Coagulase Negative Staphylococcus (GC 4551): <0.5 to 1 µg/mL
Streptococcus sp.
  MIC Streptococcus agalactiae (GC 4564): <0.06 µg/mL
  MIC Streptococcus pneumoniae (GC 1894): <0.06 µg/mL
  MIC Streptococcus pneumoniae (GC 4565): <0.06 µg/mL
  MIC Streptococcus pneumonine (ATCC 6301): <0.06 µg/mL
  MIC Streptococcus pyogenes (GC 4563): <0.06 µg/mL
Escherichia coli
  MIC Escherichia coli (GC 4559): 16 µg/mL (≈ 10.8 µM)
  MIC Escherichia coli (GC 4560): 1 µg/mL (≈ 0.677 µM)
